Experimental data published in ChEMBL document CHEMBL3526034 (Drug Metab Dispos, 2013).

How the values were obtained:
CYP2C9 = CYP2C9 (Homo sapiens, UniProt P11712); assay: Inhibition of CYP2C9 in human liver microsomes using diclofenac as substrate at 100 uM preincubated for 20 mins with substrate prior to initiation of reaction with NADPH by HPLC analysis; assay type: ADME; conditions: probe diclofenac
[1] = target: ATP-dependent translocase ABCB1 (Homo sapiens, UniProt P08183); assay: Inhibition of human MDR1; assay type: ADME
Chain of ATP-dependent translocase ABCB1 (P08183 whole entry): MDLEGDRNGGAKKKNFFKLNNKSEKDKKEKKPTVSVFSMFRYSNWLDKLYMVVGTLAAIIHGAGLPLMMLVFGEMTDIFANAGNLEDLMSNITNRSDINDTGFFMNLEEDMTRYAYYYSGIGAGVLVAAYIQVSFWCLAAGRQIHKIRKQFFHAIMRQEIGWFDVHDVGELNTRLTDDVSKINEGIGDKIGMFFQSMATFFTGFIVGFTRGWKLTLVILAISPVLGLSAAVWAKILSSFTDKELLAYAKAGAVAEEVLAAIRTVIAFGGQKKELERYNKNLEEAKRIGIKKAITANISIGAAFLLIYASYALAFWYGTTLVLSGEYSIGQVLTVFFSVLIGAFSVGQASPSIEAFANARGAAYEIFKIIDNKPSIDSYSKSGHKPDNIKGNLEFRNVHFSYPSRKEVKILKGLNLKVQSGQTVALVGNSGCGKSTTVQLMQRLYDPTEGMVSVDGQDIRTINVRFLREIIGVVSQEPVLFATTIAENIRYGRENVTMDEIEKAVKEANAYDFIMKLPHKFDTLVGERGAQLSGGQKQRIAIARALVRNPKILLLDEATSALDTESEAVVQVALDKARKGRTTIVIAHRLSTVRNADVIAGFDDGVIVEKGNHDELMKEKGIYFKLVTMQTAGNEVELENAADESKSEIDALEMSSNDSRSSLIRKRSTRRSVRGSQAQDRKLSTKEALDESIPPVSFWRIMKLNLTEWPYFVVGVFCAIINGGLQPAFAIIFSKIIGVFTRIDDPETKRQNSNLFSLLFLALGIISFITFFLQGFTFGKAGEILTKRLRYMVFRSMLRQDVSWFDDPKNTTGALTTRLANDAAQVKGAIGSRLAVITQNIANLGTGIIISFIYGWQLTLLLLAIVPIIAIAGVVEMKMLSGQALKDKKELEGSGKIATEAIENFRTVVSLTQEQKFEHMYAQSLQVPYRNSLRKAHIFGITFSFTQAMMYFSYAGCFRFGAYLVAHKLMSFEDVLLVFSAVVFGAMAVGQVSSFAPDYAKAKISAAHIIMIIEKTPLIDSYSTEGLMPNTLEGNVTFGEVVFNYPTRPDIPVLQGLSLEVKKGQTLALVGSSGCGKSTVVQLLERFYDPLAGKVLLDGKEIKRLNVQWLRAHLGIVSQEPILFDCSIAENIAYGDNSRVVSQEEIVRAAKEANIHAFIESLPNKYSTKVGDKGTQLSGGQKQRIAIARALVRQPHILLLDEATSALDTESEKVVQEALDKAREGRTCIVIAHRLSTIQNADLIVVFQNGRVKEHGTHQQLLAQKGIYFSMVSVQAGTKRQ

[2] = target: ATP-binding cassette sub-family C member 2 (Homo sapiens, UniProt Q92887); assay: Inhibition of human MRP2
Chain of ATP-binding cassette sub-family C member 2 (Q92887 whole entry): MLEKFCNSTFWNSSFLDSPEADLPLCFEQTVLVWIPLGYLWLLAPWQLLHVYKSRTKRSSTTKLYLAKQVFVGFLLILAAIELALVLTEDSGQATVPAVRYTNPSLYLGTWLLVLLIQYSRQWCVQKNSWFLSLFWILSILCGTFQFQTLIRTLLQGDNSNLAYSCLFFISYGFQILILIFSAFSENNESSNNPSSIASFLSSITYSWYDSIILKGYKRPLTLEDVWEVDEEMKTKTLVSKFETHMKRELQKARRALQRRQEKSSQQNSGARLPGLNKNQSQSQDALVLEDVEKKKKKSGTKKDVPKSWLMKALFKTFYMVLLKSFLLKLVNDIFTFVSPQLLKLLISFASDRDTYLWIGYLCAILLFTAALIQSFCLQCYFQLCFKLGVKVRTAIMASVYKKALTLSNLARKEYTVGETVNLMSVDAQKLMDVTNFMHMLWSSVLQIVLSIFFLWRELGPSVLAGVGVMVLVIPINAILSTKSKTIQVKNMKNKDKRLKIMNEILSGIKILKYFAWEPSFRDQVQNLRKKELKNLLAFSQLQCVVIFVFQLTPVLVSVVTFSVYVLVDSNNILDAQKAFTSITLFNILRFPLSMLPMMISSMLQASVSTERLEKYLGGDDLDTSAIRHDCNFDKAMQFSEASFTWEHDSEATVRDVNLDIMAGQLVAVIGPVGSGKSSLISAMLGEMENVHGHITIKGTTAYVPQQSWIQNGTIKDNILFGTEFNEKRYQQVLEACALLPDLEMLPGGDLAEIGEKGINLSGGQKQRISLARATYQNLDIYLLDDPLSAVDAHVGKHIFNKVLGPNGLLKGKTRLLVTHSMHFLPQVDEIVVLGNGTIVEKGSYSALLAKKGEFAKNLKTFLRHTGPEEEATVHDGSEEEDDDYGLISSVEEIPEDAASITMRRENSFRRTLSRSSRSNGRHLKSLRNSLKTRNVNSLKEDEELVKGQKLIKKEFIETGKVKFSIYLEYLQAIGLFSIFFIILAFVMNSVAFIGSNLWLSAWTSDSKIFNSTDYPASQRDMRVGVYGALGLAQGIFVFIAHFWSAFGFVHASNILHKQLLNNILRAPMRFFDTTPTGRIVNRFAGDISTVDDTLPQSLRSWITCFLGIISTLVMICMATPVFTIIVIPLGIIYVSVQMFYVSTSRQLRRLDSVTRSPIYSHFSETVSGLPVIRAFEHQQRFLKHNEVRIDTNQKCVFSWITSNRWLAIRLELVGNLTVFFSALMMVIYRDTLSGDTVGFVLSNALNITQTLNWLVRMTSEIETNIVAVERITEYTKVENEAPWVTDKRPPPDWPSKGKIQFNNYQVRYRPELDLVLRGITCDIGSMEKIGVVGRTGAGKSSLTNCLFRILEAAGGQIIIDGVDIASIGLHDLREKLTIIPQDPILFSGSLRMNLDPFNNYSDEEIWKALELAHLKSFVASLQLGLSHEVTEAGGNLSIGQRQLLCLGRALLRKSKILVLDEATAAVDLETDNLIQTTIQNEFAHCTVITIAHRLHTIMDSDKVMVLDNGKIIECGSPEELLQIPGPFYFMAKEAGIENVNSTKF

[3] = Protein binding in plasma (unknown origin); assay type: ADME, cell-free; conditions: read-out: PPB
Cytochrome P450 2C19 = Cytochrome P450 2C19 (Homo sapiens, UniProt P33261); assay: Drug metabolism in supersomes expressing human recombinant CYP2C19 assessed as NADPH-fortified enzyme-mediated metabolite formation at 5 uM after 120 mins by radio HPLC analysis; assay type: ADME; conditions: 2 h
Chain of Cytochrome P450 2C19 (P33261 whole entry): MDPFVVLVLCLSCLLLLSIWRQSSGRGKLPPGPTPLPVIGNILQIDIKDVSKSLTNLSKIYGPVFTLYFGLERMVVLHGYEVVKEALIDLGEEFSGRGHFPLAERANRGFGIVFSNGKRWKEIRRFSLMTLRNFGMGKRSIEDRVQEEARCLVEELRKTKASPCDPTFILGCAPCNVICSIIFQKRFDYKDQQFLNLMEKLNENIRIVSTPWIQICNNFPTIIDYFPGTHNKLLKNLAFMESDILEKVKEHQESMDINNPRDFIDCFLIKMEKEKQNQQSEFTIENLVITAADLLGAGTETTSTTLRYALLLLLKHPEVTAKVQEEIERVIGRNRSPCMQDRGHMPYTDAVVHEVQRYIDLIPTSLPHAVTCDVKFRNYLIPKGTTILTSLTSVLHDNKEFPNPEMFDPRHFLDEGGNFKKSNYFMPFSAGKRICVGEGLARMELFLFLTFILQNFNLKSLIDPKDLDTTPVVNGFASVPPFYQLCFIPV

Cytochrome P450 2B6 = target: T1, Cytochrome P450 2B6 (Homo sapiens, UniProt P20813); assay: Inhibition of CYP2B6 in human liver microsomes using bupropion as substrate preincubated for 20 mins with substrate prior to initiation of reaction with NADPH by HPLC analysis; assay type: ADME
T1 sequence (P20813 whole entry): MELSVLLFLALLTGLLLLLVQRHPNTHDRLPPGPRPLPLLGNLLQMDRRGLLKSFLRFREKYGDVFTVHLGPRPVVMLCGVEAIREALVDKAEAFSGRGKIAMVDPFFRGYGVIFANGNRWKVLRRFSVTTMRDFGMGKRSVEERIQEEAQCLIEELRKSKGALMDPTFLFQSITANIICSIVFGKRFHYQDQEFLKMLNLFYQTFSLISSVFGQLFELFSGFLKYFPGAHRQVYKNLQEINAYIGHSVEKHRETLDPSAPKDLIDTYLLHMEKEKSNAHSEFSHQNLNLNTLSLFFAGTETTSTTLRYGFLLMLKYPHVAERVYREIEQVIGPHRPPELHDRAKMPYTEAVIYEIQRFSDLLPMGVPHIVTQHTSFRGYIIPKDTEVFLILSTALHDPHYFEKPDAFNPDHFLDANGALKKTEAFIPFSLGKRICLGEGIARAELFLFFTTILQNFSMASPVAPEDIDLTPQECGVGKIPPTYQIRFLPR

Cytochrome P450 2C8 = target: T2, Cytochrome P450 2C8 (Homo sapiens, UniProt P10632); assay: Inhibition of CYP2C8 in human liver microsomes using rosiglitazone as substrate preincubated for 20 mins with substrate prior to initiation of reaction with NADPH by HPLC analysis; assay type: ADME
T2 sequence (P10632 whole entry): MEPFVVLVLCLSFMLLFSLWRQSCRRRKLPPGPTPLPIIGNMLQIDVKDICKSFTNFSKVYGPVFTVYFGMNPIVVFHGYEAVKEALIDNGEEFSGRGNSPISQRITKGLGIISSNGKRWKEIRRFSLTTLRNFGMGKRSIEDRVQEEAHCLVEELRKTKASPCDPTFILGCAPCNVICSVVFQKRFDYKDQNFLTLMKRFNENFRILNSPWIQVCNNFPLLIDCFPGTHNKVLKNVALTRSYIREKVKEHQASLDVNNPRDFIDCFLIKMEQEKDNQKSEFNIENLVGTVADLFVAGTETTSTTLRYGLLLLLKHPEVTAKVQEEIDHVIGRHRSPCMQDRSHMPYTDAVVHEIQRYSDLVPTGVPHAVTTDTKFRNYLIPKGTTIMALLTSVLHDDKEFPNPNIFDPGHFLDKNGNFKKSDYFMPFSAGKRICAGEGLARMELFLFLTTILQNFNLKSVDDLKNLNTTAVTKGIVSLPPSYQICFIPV

[4] = target: UDP-glucuronosyltransferase 2B7 (Homo sapiens, UniProt P16662); assay: Drug metabolism assessed as UDPGA-fortified human recombinant UGT2B7-mediated DTG glucuronide metabolite ((2S,3S,4S,5R,6S)-6-((4R,12aS)-9-(2,4-difluorobenzylcarbamoyl)-4-methyl-6,8-dioxo-3,4,6,8,12,12a-hexahydro-2H-[1,3]oxazino[3,2-d]pyrido[1,2-a]pyrazin-7-yloxy)-3,4,5-trihydroxytetrahydro-2H-pyran-2-carboxylic acid) formation after 120 mins by radio-HPLC analysis; assay type: ADME; conditions: recombinant enzyme
Chain of UDP-glucuronosyltransferase 2B7 (P16662 whole entry): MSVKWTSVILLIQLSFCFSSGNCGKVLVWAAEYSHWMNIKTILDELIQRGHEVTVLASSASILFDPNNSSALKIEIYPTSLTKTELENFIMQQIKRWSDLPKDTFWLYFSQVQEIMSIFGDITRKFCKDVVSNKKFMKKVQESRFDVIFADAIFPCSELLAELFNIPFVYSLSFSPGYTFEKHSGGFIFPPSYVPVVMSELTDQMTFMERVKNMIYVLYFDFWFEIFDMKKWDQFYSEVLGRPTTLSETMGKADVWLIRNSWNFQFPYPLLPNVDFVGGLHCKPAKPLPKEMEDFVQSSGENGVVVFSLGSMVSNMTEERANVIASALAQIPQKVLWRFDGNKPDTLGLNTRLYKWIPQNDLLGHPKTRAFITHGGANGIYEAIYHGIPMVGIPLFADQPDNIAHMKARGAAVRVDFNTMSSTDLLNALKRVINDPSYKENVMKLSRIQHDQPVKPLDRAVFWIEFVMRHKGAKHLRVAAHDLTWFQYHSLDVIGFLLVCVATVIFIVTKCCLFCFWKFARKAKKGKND

Chain of CYP2C9 (P11712 whole entry): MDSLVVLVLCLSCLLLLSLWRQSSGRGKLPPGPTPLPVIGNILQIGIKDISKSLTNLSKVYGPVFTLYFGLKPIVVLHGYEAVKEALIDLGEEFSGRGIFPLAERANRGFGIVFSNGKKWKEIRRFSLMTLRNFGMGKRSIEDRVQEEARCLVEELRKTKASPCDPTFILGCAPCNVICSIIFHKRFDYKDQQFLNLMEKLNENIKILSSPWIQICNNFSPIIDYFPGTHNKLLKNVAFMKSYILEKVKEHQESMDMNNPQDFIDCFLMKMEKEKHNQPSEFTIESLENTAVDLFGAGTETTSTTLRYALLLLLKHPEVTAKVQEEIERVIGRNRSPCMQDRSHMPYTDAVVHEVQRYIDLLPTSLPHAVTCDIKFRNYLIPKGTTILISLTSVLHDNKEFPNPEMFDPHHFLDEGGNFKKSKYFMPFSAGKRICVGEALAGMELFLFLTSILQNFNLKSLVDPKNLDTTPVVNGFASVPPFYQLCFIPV

## C[C@@H]1CCO[C@H]2Cn3cc(C(=O)NCc4ccc(F)cc4F)c(=O)c(O)c3C(=O)N12 [DOLUTEGRAVIR]
CYP2C9
  inhibition at 100 µM: 20%
[1]
  IC50: > 90 µM
[2]
  IC50: > 90 µM
[3]
  fraction unbound: < 0.01
Cytochrome P450 2C19
  Drug metabolism: metabolite_not_detected
Cytochrome P450 2B6
  IC50: > 100 µM
Cytochrome P450 2C8
  IC50: > 100 µM
[4]
  Drug metabolism: metabolite_not_detected
